Patent US10738041B2, “Ferroportin inhibitors” (Vifor (International) AG, priority 2015, dated 2020)
Several values for one entry are separate records, joined by “and”; a condition that tells them apart may be missing. Equal values may be shown once. Where a name gives a salt, the structure may show the parent alone.

Key:
human Fpn-GFP fusion = biological target: T1, human Fpn-GFP fusion (Homo sapiens, UniProt Q9NP59); test: Ferroportin Internalization and Degradation Assay (FACS); format: cell-based; details: average of multiple measurements, Fpn-GFP MFI, HEK-293 cell line #354, FACS; for DC50: read-out: EC50 ferroportin internalization and degradation
T1 construct: expressed in transfected cells; host or cells: HEK-293 cell line #354 (derivative of HEK-293 Tet-ON Advanced, Clontech)
T1 sequence (Q9NP59 1-571): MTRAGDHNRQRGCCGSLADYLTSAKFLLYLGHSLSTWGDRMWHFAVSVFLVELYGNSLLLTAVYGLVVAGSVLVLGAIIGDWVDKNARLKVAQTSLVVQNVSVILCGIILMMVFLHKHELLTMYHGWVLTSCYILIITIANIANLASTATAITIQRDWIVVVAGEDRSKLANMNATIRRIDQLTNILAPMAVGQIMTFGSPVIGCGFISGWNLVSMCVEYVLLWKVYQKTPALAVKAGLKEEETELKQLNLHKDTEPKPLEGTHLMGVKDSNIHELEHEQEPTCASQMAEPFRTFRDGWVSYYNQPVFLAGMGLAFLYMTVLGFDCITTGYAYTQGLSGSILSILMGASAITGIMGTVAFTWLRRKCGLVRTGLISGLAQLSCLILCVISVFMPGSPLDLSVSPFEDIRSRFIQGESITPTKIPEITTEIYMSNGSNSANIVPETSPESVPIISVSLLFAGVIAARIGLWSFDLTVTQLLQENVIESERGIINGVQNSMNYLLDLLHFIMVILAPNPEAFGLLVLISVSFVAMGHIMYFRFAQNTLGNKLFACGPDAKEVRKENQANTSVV
Description: Growing HEK-293 #354 cells in doxycycline containing media induced expression of human Fpn-GFP fusion protein on the cell surface. […] Small molecular weight Fpn inhibitor compounds were tested for dose-dependent effects on the Fpn-GFP mean fluorescence intensity (MFI) on HEK-293 cell line #354, as described below. HEK #354 cells were harvested from ca. 80% confluent cultures, seeded at 0.6×10^6 (cells/ml in DMEM/F12 GlutaMAX™ medium (Invitrogen, Cat. 31331-028) containing 10% FBS (Clontech, Cat. 631106), 1% Penicillin-Streptomycin (Invitrogen, Cat. 15140-122), 200 μg/ml Hygromycin B (Invitrogen, Cat. 10687-010), Blasticidin 5 μg/ml, (Invitrogen, Cat. R210-01), 4 μg/ml doxycycline (Clontech, Cat. 631311), 50 μl per well of 384 well plates (Greiner; Cat. 781091) and grown at 37° C. with 5% CQ. After overnight incubation, 10 μl/well of dilution series of the test compounds were added in quadruplicates and plates were further incubated overnight at 37° C. with 5% CO2. Cells were washed once with FACS buffer (PBS containing 1% FBS, 2 mM EDTA and 0.05% NaN3), harvested in FACS buffer with 0.5 μg/ml propidium iodide (Sigma, Cat. P4864) and analyzed in a flow cytometer (CANTO™ II, BD Biosciences) equipped with high throughput sampler. Live HEK #354 cells were gated as propidium iodide negative population and analyzed for expression of Fpn-GFP.

ferroportin (Fpn) = biological target: T2, ferroportin (Fpn) (Mus musculus, UniProt Q9JHI9); test: Hepcidin Internalization Assay (J774); format: cell-based; details: average of multiple measurements; inhibition of TMR-hepcidin (25 nM) internalization into J774 cells; read-out: J774 IC50
T2 construct: host or cells: J774 mouse macrophage cell line, Fe(III)-NTA induced
T2 sequence (Q9JHI9 1-570): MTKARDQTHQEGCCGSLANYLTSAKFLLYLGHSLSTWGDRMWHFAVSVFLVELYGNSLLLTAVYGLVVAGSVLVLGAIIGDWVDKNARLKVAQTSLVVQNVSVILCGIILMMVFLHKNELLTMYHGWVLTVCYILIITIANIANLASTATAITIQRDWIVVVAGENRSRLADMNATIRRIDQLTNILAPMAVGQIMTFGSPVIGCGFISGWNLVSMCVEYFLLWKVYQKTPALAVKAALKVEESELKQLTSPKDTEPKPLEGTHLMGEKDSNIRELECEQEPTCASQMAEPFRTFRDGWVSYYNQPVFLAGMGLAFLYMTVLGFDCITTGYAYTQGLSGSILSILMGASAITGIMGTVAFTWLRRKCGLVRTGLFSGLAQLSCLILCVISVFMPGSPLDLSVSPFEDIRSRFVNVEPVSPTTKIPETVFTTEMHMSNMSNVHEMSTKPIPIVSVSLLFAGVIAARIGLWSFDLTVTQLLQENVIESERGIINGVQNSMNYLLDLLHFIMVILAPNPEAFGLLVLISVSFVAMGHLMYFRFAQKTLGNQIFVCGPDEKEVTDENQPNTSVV
Procedure, shortened: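 Mouse J774 macrophages, loaded overnight with 200 μM Fe(III)NTA, incubated 2 h at 37 °C with test compounds and TMR-labeled hepcidin. Cell-associated TMR fluorescence, a proxy for hepcidin binding to Fpn and internalization, quantified by automated imaging with Hoechst nuclear counterstain after fixation; IC50 from log(inhibitor) vs. response fit, triplicates.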

human Fpn = biological target: T3, human Fpn (Homo sapiens, UniProt Q9NP59); test: Biophysical Ferroportin-Hepcidin Binding Assay (fluorescence polarization); details: average of multiple measurements; 1 μM human Fpn, 20 nM TMR-hepcidin; read-out: FP IC50
T3 construct: FLAG (C); made in house; host or cells: Pichia pastoris
T3 sequence (Q9NP59 1-571): T1 sequence (Q9NP59 1-571)
Procedure, shortened: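 Purified human Fpn (C-terminal FLAG tag, expressed in Pichia pastoris) at 1 μM final was incubated with 20 nM TMR-hepcidin and serially diluted compounds in duplicate for 90 min at room temperature. Binding inhibition was read as a dose-dependent fall in FP (mP), calculated from parallel and perpendicular fluorescence.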

Compound: O=C(NCc1ccccc1)c1csc(CCNCc2nc3ccccc3[nH]2)n1 [Example 1]
- DC50 (human Fpn-GFP fusion): 4.66 µM
- IC50 (ferroportin (Fpn)): 0.5 µM
- IC50 (human Fpn): 0.49 µM

Compound: O=C(Cn1cc(C(=O)NCc2ncccc2F)cn1)NCCc1nc2ccccc2[nH]1 [Example 117]
- EC50 (human Fpn-GFP fusion): > 25 µM and < 50 µM
- IC50 (ferroportin (Fpn)): 9.7 µM
- IC50 (human Fpn): 9 µM

Compound: O=C(NCc1ncccc1F)c1cccc(CCNCc2nc3ccccc3[nH]2)n1 [Example 133]
- DC50 (human Fpn-GFP fusion): 20.7 µM
- IC50 (ferroportin (Fpn)): 4.56 µM
- IC50 (human Fpn): 2.5 µM

Compound: O=C(NCc1ncccc1F)c1csc(CCCNc2nc3ccccc3[nH]2)n1 [Example 135]
- EC50 (human Fpn-GFP fusion): 21.2 µM
- IC50 (ferroportin (Fpn)): 3.41 µM
- IC50 (human Fpn): 36.9 µM

Compound: O=C(NCc1ncccc1F)c1cnn(C2CN(Cc3nc4ccccc4[nH]3)C2)c1 [Example 136]
- EC50 (human Fpn-GFP fusion): 17.9 µM
- IC50 (ferroportin (Fpn)): > 10.5 µM
- IC50 (human Fpn): 6.85 µM

Compound: O=C(NCc1ncccc1F)c1csc(CCNCc2ccc3nc[nH]c3c2)n1 [Example 139]
- EC50 (human Fpn-GFP fusion): > 20 µM and < 50 µM
- IC50 (ferroportin (Fpn)): 4.79 µM
- IC50 (human Fpn): 63.1 µM

Compound: O=C(NCc1ncccc1F)c1csc(CCNCc2cccc3nc[nH]c23)n1 [Example 140]
- EC50 (human Fpn-GFP fusion): > 20 µM and < 50 µM
- IC50 (ferroportin (Fpn)): 3.73 µM
- IC50 (human Fpn): 6.9 µM

Compound: O=C(NCc1ncccc1F)c1cccc(CCNCCc2nc3ccccc3[nH]2)n1 [Example 146]
- DC50 (human Fpn-GFP fusion): 25.3 µM
- IC50 (ferroportin (Fpn)): 3.11 µM
- IC50 (human Fpn): 1.3 µM

Compound: O=C(NCc1ncccc1F)c1cccc(CCN(CCc2nc3ccccc3[nH]2)CCc2nc3ccccc3[nH]2)n1 [Example 147]
- DC50 (human Fpn-GFP fusion): 0.813 µM
- IC50 (ferroportin (Fpn)): 0.533 µM
- IC50 (human Fpn): 0.56 µM

Compound: O=C(NCc1ncccc1F)c1csc(CCN(Cc2nc3ccccc3[nH]2)Cc2nc3ccccc3[nH]2)n1 [Example 166]
- EC50 (human Fpn-GFP fusion): > 20 µM and < 50 µM
- IC50 (ferroportin (Fpn)): 1.12 µM
- IC50 (human Fpn): 0.37 µM

Compound: O=C(NCC1CCCCN1)c1csc(CCNCc2nc3ccccc3[nH]2)n1 (stereo not shown) [Example 185]
- DC50 (human Fpn-GFP fusion): 14.4 µM
- IC50 (ferroportin (Fpn)): 2.23 µM
- IC50 (human Fpn): 2.9 µM

Compound: O=C(NCc1ncccc1F)c1csc([C@H]2[C@@H]3CN(Cc4nc5ccccc5[nH]4)C[C@@H]32)n1 [Example Compound No. 213, 2-[(1R,5S,6S)-3-(1H-1,3-Benzodiazol-2-ylmethyl)-3-azabicyclo[3.1.0]hexan-6-yl]-N-[(3-fluoropyridin-2-yl)methyl]-1,3-thiazole-4-carboxamide Trihydrochloride]
- EC50 (human Fpn-GFP fusion): 4.14 µM
